From patent US20220380347A1, “INHIBITORS OF CYSTEINE PROTEASES AND METHODS OF USE THEREOF” (Pardes Biosciences, Inc., priority 2020, published 2022)
Where two headings read alike, the source gives them in different places.

Legend:
[1] = target: COVID-19 (nCoV-2019, SARS-CoV2) Mpro (Severe acute respiratory syndrome coronavirus 2, UniProt P0DTD1); test: COVID-19 (nCoV-2019, SARS-CoV2) Mpro enzymatic assay; type: biochemical; conditions: 25 nM Mpro, 25 μM substrate; read-out: COVID-19 Mpro IC50
[2] = test system: HCov OC43; test: HCoV OC43 cytopathic effect (CPE) assay, CellTiter Glo; type: cell-based, human coronavirus (HCov) OC43
Procedure: Example 238: Evaluation of antiviral activity of compounds against human coronavirus (HCov) 229E and OC43 in the cytopathic effect (CPE) assays
Compounds were assayed using standard methods against multiple coronaviral strains, including HCoV 229E and OC43 strains. The antiviral activity of compounds was calculated based on the protection of the virus-induced CPE at each concentration normalized by the virus control.
Reference compound used was remdesivir; detection reagent: CellTiter Glo.) The CPE were measured by CellTiter Glo following the manufacturer's manual. The antiviral activity of compounds was calculated based on the protection of the virus-induced CPE at each concentration normalized by the virus control.
Cell viability was measured with CellTiter Glo.

[3] = target: 229E Mpro (Human coronavirus 229E, UniProt P0C6X1); test: 229E Mpro enzymatic assay (standard methods, SARS-CoV2 Mpro assay given as exemplary); type: biochemical, human coronavirus (HCov) 229E
Procedure: Compounds were assayed using standard methods to assess compound activity and IC50. As an exemplary for assessment of the SARS-COV2 Mpro, the C-His6-tagged Mpro (NC_045512) was cloned, expressed in E. coli and purified. The assay buffer contained 20 mM of Tris-HCl (pH 7.3), 100 mM of NaCl, 1 mM of EDTA, 5 mM of TCEP and 0.1% BSA. The final concentrations of the Mpro protein and substrate were 25 nM and 25 μM, respectively, in the Mpro enzymatic assay. The Km of the Mpro substrate for the protease was 13.5 μM.
The compounds were added to an assay plate. […] For no inhibition control (ZPE, zero percent effect), no compound was added.
IC50 values of compounds were calculated with the GraphPad Prism software using the nonlinear regression model of log(inhibitor) vs. response—Variable slope (four parameters). The inhibition activity was calculated using the formula below, IC50 values is calculated using the Inhibition % data.
Inhibition %=[(Sample-Average ZPE)/(Average HPE-Average ZPE)]*100%^#

[4] = Betacoronavirus 1, OC43, read-out: OC43 IC50 (uM) MEDIAN, median
[5] = read-out: OC43 IC50 (uM) MEDIAN, median

Sequence of 229E Mpro (P0C6X1 2966-3267): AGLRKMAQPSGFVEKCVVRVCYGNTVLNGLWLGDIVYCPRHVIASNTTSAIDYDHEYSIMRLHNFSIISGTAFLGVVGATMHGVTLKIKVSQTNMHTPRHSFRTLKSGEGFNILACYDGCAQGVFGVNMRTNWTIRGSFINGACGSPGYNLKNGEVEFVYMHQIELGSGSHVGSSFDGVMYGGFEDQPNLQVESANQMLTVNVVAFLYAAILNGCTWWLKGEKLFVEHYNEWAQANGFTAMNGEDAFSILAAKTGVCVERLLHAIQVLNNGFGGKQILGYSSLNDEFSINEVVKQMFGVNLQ

| Structure (SMILES) | IC50 [1] | IC50 [2, 4] | EC50 ([3]; 229E Mpro EC50) | IC50 [2, 5] | EC50 ([3]; read-out: 229E Mpro EC50) |
| --- | --- | --- | --- | --- | --- |
| CO[C@@H]1C[C@H](C(=O)N(c2ccc(S(F)(F)(F)(F)F)cc2)C(C(=O)NCC2(C)CCCN(C(=O)OC(C)(C)C)C2)c2cccnc2)N(C#N)C1 (single isomer, unassigned) [1290 Isomer 1] | < 2 µM | 2 to 10 µM | < 2 µM | – | – |
| C[C@H](NC(=O)C(c1cncc(F)c1)N(C(=O)[C@H]1C[C@@](C)(O)CN1C#N)c1ccc(S(F)(F)(F)(F)F)cc1)c1ccccc1 (single isomer, unassigned) [1328 Isomer 1] | < 2 µM | < 2 µM | < 2 µM | – | – |
| CC1(C)CN(C#N)[C@@H](C(=O)N(c2ccc(C(C)(C)C)cc2)C(C(=O)NC2CCOCC2)c2cccnc2)CO1 (single isomer, unassigned) [Compound 1141] | < 2 µM | 2 to 10 µM | < 2 µM | – | – |
| CC1(C)CCNc2cc(N(C(=O)[C@H]3C[C@@](C)(O)CN3C#N)C(C(=O)NC3CCC(F)(F)CC3)c3cncc(F)c3)ccc21 (single isomer, unassigned) [Compound 1127 Isomer 1] | < 2 µM | – | < 2 µM | < 2 µM | – |
| CC(C)(C#N)C(=O)N(c1ccc(S(F)(F)(F)(F)F)cc1)C(C(=O)NC1CCC(F)(F)CC1)c1cncc(F)c1 (single isomer, unassigned) [Compound 1316 Isomer 1, 2-cyano-N-[2-[(4,4-difluorocyclohexyl)amino]-1-(5-fluoro-3-pyridyl)-2-oxo-ethyl]-2-methyl-N-[4-(pentafluoro-λ6-sulfanyl)phenyl]propanamide] | > 30 µM | > 30 µM | 10 to 30 µM | – | – |
| C[C@H](NC(=O)C(c1cnccc1C(F)(F)F)N(C(=O)[C@H]1C[C@@](C)(O)CN1C#N)c1ccc(S(F)(F)(F)(F)F)cc1)c1ccccc1 (stereo partly drawn) [Compound 1347, (2R,4R)-1-cyano-4-hydroxy-4-methyl-N-[2-oxo-2-[[(1S)-1-phenylethyl]amino]-1-[4-(trifluoromethyl)-3-pyridyl]ethyl]-N-[4-(pentafluoro-λ6-sulfanyl)phenyl]pyrrolidine-2-carboxamide] | < 2 µM | < 2 µM | < 2 µM | – | – |
| CC(C)(C)OC(=O)N1CC(C(=O)N(c2ccc(C(C)(C)C)cc2)C(C(=O)NC2CCCCC2)c2cccnc2)C1 (stereo not shown) [Compound 126] | > 30 µM | – | > 30 µM | – | – |
| CC(C)(C)c1ccc(N(C(=O)[C@H]2NCC2(C)C)[C@@H](C(=O)NC2CCCCC2)c2cccnc2)cc1 [Compound 136c] | > 30 µM | – | > 30 µM | – | – |
| CC(C)(C)c1ccc(N(C(=O)c2cnc[nH]2)C(C(=O)NC2CCCCC2)c2cncnc2)cc1 (stereo not shown) [Compound 104, N-(4-tert-butylphenyl)-N-[2-(cyclohexylamino)-2-oxo-1-pyrimidin-5-yl-ethyl]-1H-imidazole-5-carboxamide] | 2 to 10 µM | – | – | – | – |
| CC1(C(=O)N(c2ccc(C(C)(C)C)cc2)C(C(=O)NC2CCCCC2)c2cccnc2)CNC1 (stereo not shown) [Compound 129a] | > 30 µM | – | > 30 µM | – | – |
| CC(C)(C)c1ccc(N(C(=O)[C@H]2CCCN2C#N)C(C(=O)NC2CCCCC2)c2cccnc2)cc1 (single isomer, unassigned) [Compound 130b] | > 30 µM | – | 2 to 10 µM | – | – |
| CC(C)(C)c1ccc(N(C(=O)[C@@H]2CCCN2C#N)C(C(=O)NC2CCCCC2)c2cccnc2)cc1 (stereo partly shown) [Compound 130c] | > 30 µM | – | > 30 µM | – | – |
| CC(C)(C)c1ccc(N(C(=O)c2cnc[nH]2)C(C(=O)NC2CCCCC2)c2ccc(C(F)(F)F)nc2Cl)cc1 (stereo not shown) [Compound 102a] | > 30 µM | – | – | – | – |
| CC(C)(C)c1ccc(N(C(=O)c2cnc[nH]2)C(C(=O)NC2CCCCC2)c2ncc(Cl)nc2C#N)cc1 (stereo not shown) [Compound 110] | > 30 µM | – | > 30 µM | – | – |
| CC(C)(C)c1ccc(N(C(=O)C2CNC2)C(C(=O)NC2CCCCC2)c2cccnc2)cc1 (stereo not shown) [Compound 127] | > 30 µM | – | > 30 µM | – | – |
| CC(C)(C)c1ccc(N(C(=O)c2nccnc2C(N)=O)C(C(=O)NC2CCCCC2)c2cccnc2)cc1 (stereo not shown) [Compound 124a] | > 30 µM | – | > 30 µM | – | – |
| N#CN1C[C@H]2C[C@H]2[C@@H]1C(=O)N(c1ccc(S(F)(F)(F)(F)F)cc1)C(C(=O)NC1CCC(F)(F)CC1)c1cncc(F)c1 (single isomer, unassigned) [Compound 1095b Isomer 2] | < 2 µM | – | – | < 2 µM | – |

| Structure (SMILES) | IC50 [1] | IC50 [2, 4] | EC50 ([3]; 229E Mpro EC50) | IC50 [2, 5] | EC50 ([3]; read-out: 229E Mpro EC50) |
| --- | --- | --- | --- | --- | --- |
| NC(=O)c1nc(C2CC2)ccc1N(C(=O)c1cnc[nH]1)[C@@H](C(=O)NC1CCCCC1)c1cccnc1 [Compound 832] | – | – | – | – | 2 to 10 µM |
| CC(C)(C)OC(=O)N1CCC[C@@H]1C(=O)N(c1ccc(C(C)(C)C)cc1)C(C(=O)NC1CCCCC1)c1cccnc1 (single isomer, unassigned) [Compound 131a] | > 30 µM | – | > 30 µM | – | – |
| CC(C)(C)c1ccc(N(C(=O)[C@H]2N(C#N)CC2(C)C)C(C(=O)NC2CCCCC2)c2cccnc2)cc1 (stereo partly shown) [Compound 136a] | > 30 µM | – | > 30 µM | – | – |
| CC(C)(C)c1ccc(N(C(=O)[C@@H]2CCCN2)C(C(=O)NC2CCCCC2)c2cccnc2)cc1 (stereo partly shown) [Compound 131d] | > 30 µM | – | – | – | > 30 µM |
| CC(C)(C)c1ccc(N(C(=O)[C@@H]2CCN2)[C@H](C(=O)NC2CCCCC2)c2cccnc2)cc1 [Compound 846] | – | – | – | – | < 2 µM |
| CC(C)(C)OC(=O)N1CCC[C@@H]1C(=O)N(c1ccc(C(C)(C)C)cc1)C(C(=O)NC1CCCCC1)c1cccnc1 (stereo partly shown) [Compound 131b] | > 30 µM | – | – | – | > 30 µM |
| CC(C)(C)c1ccc(N(C(=O)c2nsnc2C#N)C(C(=O)NC2CCCCC2)c2cccnc2)cc1 (stereo not shown) [Compound 122, N-(4-tert-butylphenyl)-4-cyano-N-[2-(cyclohexylamino)-2-oxo-1-(3-pyridyl)ethyl]-1,2,5-thiadiazole-3-carboxamide] | – | – | – | – | > 30 µM |
| CC(C)(C)c1ccc(N(C(=O)c2cnc[nH]2)C(C(=O)NC2CCCCC2)c2cccnc2Br)cc1 (stereo not shown) [Compound 100a] | > 30 µM | – | – | – | – |
| CC(C)(C)c1ccc(N(C(=O)c2nsnc2C(N)=O)C(C(=O)NC2CCCCC2)c2cccnc2)cc1 (stereo not shown) [Compound 123a] | > 30 µM | – | > 30 µM | – | – |
| CC(C)(C)c1ccc(N(C(=O)[C@@H]2CCCN2)C(C(=O)NC2CCCCC2)c2cccnc2)cc1 (single isomer, unassigned) [Compound 131c] | > 30 µM | – | > 30 µM | – | – |
| CC(C)(C)c1ccc(N(C(=O)c2scnc2C#N)C(C(=O)NC2CCCCC2)c2cccnc2)cc1 (stereo not shown) [Compound 899, N-(4-tert-butylphenyl)-4-cyano-N-[2-(cyclohexylamino)-2-oxo-1-(3-pyridyl)ethyl]thiazole-5-carboxamide] | > 30 µM | – | – | – | – |
| CC(C)(C)c1ccc(N(C(=O)c2scnc2Cl)C(C(=O)NC2CCCCC2)c2cccnc2)cc1 (stereo not shown) [Compound 899a] | > 30 µM | – | – | – | – |
| CC(C)(C)OC(=O)N1CC(C)(C(=O)N(c2ccc(C(C)(C)C)cc2)C(C(=O)NC2CCCCC2)c2cccnc2)C1 (stereo not shown) [Compound 129] | > 30 µM | – | > 30 µM | – | – |
| CC(C)(C)c1ccc(N(C(=O)[C@H]2CCCN2C#N)C(C(=O)NC2CCCCC2)c2cccnc2)cc1 (single isomer, unassigned) [Compound 130a] | < 2 µM | – | < 2 µM | – | – |
| CC(C)(C)c1ccc(N(C(=O)[C@H]2NCC2(C)C)[C@H](C(=O)NC2CCCCC2)c2cccnc2)cc1 [Compound 136b] | > 30 µM | – | > 30 µM | – | – |
| NC(=O)c1nc(C2CC2)ccc1N(C(=O)c1cnc[nH]1)[C@H](C(=O)NC1CCCCC1)c1cccnc1 [Compound 833] | 2 to 10 µM | – | 2 to 10 µM | – | – |
